Patent publication US20080096238A1, “HIGH THROUGHPUT ASSAY FOR HUMAN RHO KINASE ACTIVITY WITH ENHANCED SIGNAL-TO-NOISE RATIO” (ALCON, INC., priority 2004, published 2008)

How the values were obtained:
[1] = test system: Rabbit Eyes; assay: Intraocular pressure reduction in rabbit eyes after topical ocular dosing; format: in vivo;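 also: mean IOP reduction per time point from 7-8 rabbits per group, drug-treated groups alongside vehicle-treated control groups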
[2] = test system: Ocular Hypertensive Monkey Eyes; assay: Intraocular pressure reduction in conscious ocular hypertensive cynomolgus monkey eyes after topical ocular dosing; format: in vivo;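 also: mean of 8 drug-treated monkeys per time point, IOP change expressed against a vehicle-dosed control group of 5 monkeys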
[3] = molecular target: T1, Human Recombinant ROCK II Enzyme (Homo sapiens, UniProt O75116); assay: High throughput human recombinant ROCK II enzyme inhibition assay (γ-33P-ATP, Long S6 substrate peptide, filter mat); format: biochemical; conditions: mean ± SEM; for Hill Coefficient (nH): Hill coefficient of the inhibition plots; for IC50: recombinant human ROCK II (aa 11-552), 100 μM ATP, 30 min at 30° C., read-out: Inhibition Constant (IC50)
T1 construct: purchased Upstate USA, Inc., Lake Placid, N.Y. 14-451
T1 sequence (O75116 11-552): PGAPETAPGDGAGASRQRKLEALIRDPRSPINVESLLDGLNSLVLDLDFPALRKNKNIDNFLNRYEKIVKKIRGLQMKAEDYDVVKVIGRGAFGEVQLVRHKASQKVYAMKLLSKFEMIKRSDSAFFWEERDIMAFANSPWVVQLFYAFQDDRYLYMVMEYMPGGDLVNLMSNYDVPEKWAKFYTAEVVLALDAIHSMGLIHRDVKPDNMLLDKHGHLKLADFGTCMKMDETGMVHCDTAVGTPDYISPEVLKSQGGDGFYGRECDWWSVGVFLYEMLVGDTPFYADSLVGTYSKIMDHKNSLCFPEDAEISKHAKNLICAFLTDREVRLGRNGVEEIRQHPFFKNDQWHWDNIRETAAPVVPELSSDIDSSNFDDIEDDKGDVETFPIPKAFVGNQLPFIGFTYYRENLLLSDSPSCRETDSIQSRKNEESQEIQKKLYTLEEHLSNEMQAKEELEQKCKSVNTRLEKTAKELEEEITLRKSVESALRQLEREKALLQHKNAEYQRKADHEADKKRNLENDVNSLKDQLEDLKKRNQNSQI
Description: The enzyme assays are performed using a Biomek 2000 Robotic Workstation (Beckman Instruments, Palo Alto, Calif.) in a 96-well format using γ-^33P-ATP (Perkin-Elmer Life Sciences, Boston, Mass.). Stock γ-^33P-ATP (3000 Ci/mmol) is diluted to 1 μCi/μl with the MgCl2/ATP cocktail solution. The concentrations of MgCl2/ATP used are 15 mM and 100 μM, respectively. […] The unutilized [γ-^33P]-ATP and other residual reagents are thereby eliminated from the filter mat but the radioactive phosphorylated peptide product is retained on the filter mat for quantification. The automated washing of the filter mat thereby enhances the signal-to-noise ratio of the assay thus rendering it into a sensitive assay. The filter mats bearing the captured radioactive phosphorylated product are then dried in a microwave oven for 15 sec, placed in special sample cellophane bag (Wallac Inc., Turku, Finland) designed for these filter mats and covered with 20 ml of Betaplate scintillation fluid (Perkin-Elmer Inc., Boston, Mass.). The bags are then sealed using a heat sealer device (Wallac Inc., Turku, Finland) and a roller used to evenly spread the scintillation fluid over the whole of the filter mat.
In a further embodiment of the present invention, the dried filter mat can be covered with a solid scintillant (MELTILEX®; Wallac Inc., Turku, Finland) that is melted directly onto the filter mat using a MELTILEX® heat sealer (Wallac Inc., Turku, Finland), a device designed for this purpose. The coated filter mat is then placed in a sample cellophane bag (Wallac Inc., Turku, Finland) designed for these filter mats that is then sealed and the radioactivity determined as described above. The solid scintillant assists in avoiding the spread of radioactivity from sample to sample on the dried filter mat and thus minimizes variation of the data. A solid scintillant also eliminates waste disposal of liquid scintillation fluid.
The raw data from the filter mats are then automatically sent electronically to a computer for semi-automated analyses using algorithms and a suite of programs (XLFITT computer program; IDBS corporation, Emeryville, Calif.) that perform non-linear, iterative, sigmoidal-fit analyses of the raw data.

[4] = topical ocular dose 300 μg, 1 Hour Post Dosing
[5] = topical ocular dose 300 μg, 2 Hours Post Dosing
[6] = topical ocular dose 300 μg, 3 Hours Post Dosing
[7] = topical ocular dose 300 μg, 4 Hours Post Dosing
[8] = topical ocular dose 500 μg, 1 Hour Post Dosing
[9] = topical ocular dose 500 μg, 2 Hours Post Dosing
[10] = topical ocular dose 500 μg, 3 Hours Post Dosing
[11] = topical ocular dose 500 μg, 4 Hours Post Dosing
[12] = topical ocular dose 500 μg, 6 Hours Post Dosing
[13] = topical ocular dose 300 μg, 6 Hours Post Dosing
[14] = topical ocular dose 1 mg, 1 Hour Post Dosing
[15] = topical ocular dose 1 mg, 3 Hours Post Dosing
[16] = topical ocular dose 1 mg, 6 Hours Post Dosing

Row | Hill Coefficient (nH) [3] | Compound | % Max. IOP Reduction in Rabbit Eyes [1, 8] [%] | % Max. IOP Reduction in Rabbit Eyes [1, 9] [%] | % Max. IOP Reduction in Rabbit Eyes [1, 10] [%] | % Max. IOP Reduction in Rabbit Eyes [1, 11] [%] | % Max. IOP Reduction in Ocular Hypertensive Monkey Eyes [2, 8] [%] | % Max. IOP Reduction in Ocular Hypertensive Monkey Eyes [2, 10] [%] | % Max. IOP Reduction in Ocular Hypertensive Monkey Eyes [2, 12] [%] | % Max. IOP Reduction in Ocular Hypertensive Monkey Eyes [2, 4] [%] | % Max. IOP Reduction in Ocular Hypertensive Monkey Eyes [2, 6] [%] | % Max. IOP Reduction in Ocular Hypertensive Monkey Eyes [2, 13] [%] | % Max. IOP Reduction in Ocular Hypertensive Monkey Eyes [2, 14] [%] | % Max. IOP Reduction in Ocular Hypertensive Monkey Eyes [2, 15] [%] | % Max. IOP Reduction in Ocular Hypertensive Monkey Eyes [2, 16] [%] | further results
1 |  | O=S(=O)(c1cccc2cnccc12)N1CCCNCC1 [D, Fasudil, Fasudil] | 25 | 33 | 25 | 17 | 33 | 28 | 16 |  |  |  |  |  |  | % Max. IOP Reduction in Rabbit Eyes [1, 4]: 17%; % Max. IOP Reduction in Rabbit Eyes [1, 5]: 29%; % Max. IOP Reduction in Rabbit Eyes [1, 6]: 26%; % Max. IOP Reduction in Rabbit Eyes [1, 7]: 20%
2 | 0.6 ± 0.2 | Cc1cncc2c1=C(S(=O)(=O)N1CCCN(C)CC1C)CCC=2 (stereo not drawn) [B] |  |  |  |  |  |  |  |  |  |  |  |  |  | IC50 [3]: 0.485 ± 0.207 µM
3 | 0.91 ± 0.28 | CC1CN(S(=O)(=O)c2cccc3cnccc23)CCN1 (stereo not drawn) [I, HA-135] |  |  |  |  | 19 | 15 | 1 |  |  |  |  |  |  | 
4 | 0.95 ± 0.16 | Cc1cncc2cccc(S(=O)(=O)N3CCCN(C)C(C)C3)c12 (stereo not drawn) [H] |  |  |  |  |  |  |  |  |  |  |  |  |  | 
5 |  | CC(N)[C@H]1CC[C@H](C(=O)Nc2ccccc2)CC1 (stereo partly drawn) [G, Y-27632] |  |  |  |  |  |  |  | 15 | 14 | 8 | 24 | 36 | 32 | % Max. IOP Reduction in Rabbit Eyes ([1]; topical ocular dose 2 mg, 1 Hour Post Dosing): 26%; % Max. IOP Reduction in Rabbit Eyes ([1]; topical ocular dose 2 mg, 2 Hours Post Dosing): 28%; % Max. IOP Reduction in Rabbit Eyes ([1]; topical ocular dose 2 mg, 3 Hours Post Dosing): 29%; % Max. IOP Reduction in Rabbit Eyes ([1]; topical ocular dose 2 mg, 4 Hours Post Dosing): 27%
6 | 0.94 ± 0.11 | Cc1cncc2cccc(S(=O)(=O)N3CCNC(C)C3)c12 (stereo not drawn) [F] |  |  |  |  | 23 | 20 | 20 |  |  |  |  |  |  | 
7 |  | Cc1cncc2cccc(S(=O)(=O)N3CCCNCC3C)c12 (stereo not drawn) [A, HMN-1152] | 34 | 34 | 27 | 19 |  |  |  | 29 | 30 | 21 | 42 | 51 | 36 | % Max. IOP Reduction in Rabbit Eyes [1, 14]: 29%; % Max. IOP Reduction in Rabbit Eyes ([1]; topical ocular dose 1 mg, 2 Hours Post Dosing): 35%; % Max. IOP Reduction in Rabbit Eyes [1, 15]: 32%; % Max. IOP Reduction in Rabbit Eyes ([1]; topical ocular dose 1 mg, 4 Hours Post Dosing): 24%; % Max. IOP Reduction in Ocular Hypertensive Monkey Eyes ([2]; topical ocular dose 100 μg, 1 Hour Post Dosing): 28%; % Max. IOP Reduction in Ocular Hypertensive Monkey Eyes ([2]; topical ocular dose 100 μg, 3 Hours Post Dosing): 25%; % Max. IOP Reduction in Ocular Hypertensive Monkey Eyes ([2]; topical ocular dose 100 μg, 6 Hours Post Dosing): 19%
8 | 0.9 ± 0.3 | O=S(=O)(c1cccc2c(Cl)cccc12)N1CCCNCC1 [J, ML-9] |  |  |  |  |  |  |  | 7 | 6 | 5 |  |  |  | % Max. IOP Reduction in Rabbit Eyes [1, 4]: 8%; % Max. IOP Reduction in Rabbit Eyes [1, 5]: 23%; % Max. IOP Reduction in Rabbit Eyes [1, 6]: 0.4%; % Max. IOP Reduction in Rabbit Eyes [1, 7]: 6%; IC50 [3]: 12 µM
9 | 0.99 ± 0.13 | CC1CNCCN1S(=O)(=O)c1cccc2cnccc12 (stereo not drawn) [E, H-7] | 19 | 11 | 0 | 6 |  |  |  |  |  |  | 31 | 21 | 12 | 
